Values quoted from earlier work, collected in patent US20130096316A1, “Novel Method for Preparation of Bisnorcymerine and Salts Thereof” (QR PHARMA, INC., priority 2011, published 2013).

Molecular target: human BChE (Homo sapiens, UniProt P06276)
Conditions: ratio of the AChE IC50 to the BChE IC50; cited from Yu et al., 1999

Sequence of human BChE (P06276 29-602): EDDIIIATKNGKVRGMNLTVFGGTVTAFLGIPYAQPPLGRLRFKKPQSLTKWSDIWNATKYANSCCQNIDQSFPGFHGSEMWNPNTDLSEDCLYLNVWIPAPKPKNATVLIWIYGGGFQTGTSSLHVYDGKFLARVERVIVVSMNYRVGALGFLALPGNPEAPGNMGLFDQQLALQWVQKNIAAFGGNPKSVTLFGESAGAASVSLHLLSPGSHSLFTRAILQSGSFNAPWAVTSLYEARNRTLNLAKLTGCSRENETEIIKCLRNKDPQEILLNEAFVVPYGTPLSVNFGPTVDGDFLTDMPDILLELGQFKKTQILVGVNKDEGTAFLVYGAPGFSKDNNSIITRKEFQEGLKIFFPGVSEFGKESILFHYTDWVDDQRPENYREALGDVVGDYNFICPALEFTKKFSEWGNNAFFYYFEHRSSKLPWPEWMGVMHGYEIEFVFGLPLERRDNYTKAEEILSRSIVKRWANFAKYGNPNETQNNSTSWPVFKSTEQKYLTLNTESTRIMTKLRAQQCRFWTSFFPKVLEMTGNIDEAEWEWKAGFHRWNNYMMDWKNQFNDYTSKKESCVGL

## CC(C)c1ccc(NC(=O)Oc2ccc3c(c2)[C@]2(C)CCNC2N3)cc1 (stereo partly drawn) [Compound 1, (3aS)-3a-methyl-1,2,3,3a,8,8a-hexahydropyrrolo[2,3-b]indol-5-yl (4-isopropylphenyl)carbamate]
  selectivity for inhibition of BChE as compared to AChE: 110 fold
